Assay: xn = mol fraction of the nth substance listed
Conditions: Liquid, Pulse-echo method

CCCCCCC [heptane] + CCCO
Conditions | speed of sound [m/s]
308.07 K, 30400 kPa, x2 = 0 | 1290.3
308.07 K, 45590 kPa, x2 = 0 | 1368.7
308.08 K, 100 kPa, x2 = 0 | 1087.4
308.08 K, 15200 kPa, x2 = 0 | 1200.4
308.09 K, 121580 kPa, x2 = 0.7016 | 1655.6
308.09 K, 121580 kPa, x2 = 0.7986 | 1657.2
308.1 K, 121580 kPa, x2 = 0.3008 | 1657.5
308.1 K, 121580 kPa, x2 = 0.4992 | 1655.4
308.11 K, 30400 kPa, x2 = 0.6027 | 1293.7
308.11 K, 91190 kPa, x2 = 0 | 1562.4
308.11 K, 111450 kPa, x2 = 0.4992 | 1622.6
308.11 K, 111450 kPa, x2 = 0.7986 | 1625.7
308.12 K, 100 kPa, x2 = 0.3008 | 1086.3
308.12 K, 15200 kPa, x2 = 0.1008 | 1194.9
308.12 K, 60790 kPa, x2 = 0 | 1439
308.12 K, 75990 kPa, x2 = 0 | 1503.2
308.12 K, 91190 kPa, x2 = 0.7016 | 1555.2
308.13 K, 30400 kPa, x2 = 0.7986 | 1308.5
308.14 K, 45590 kPa, x2 = 0.6027 | 1368.1
308.14 K, 60790 kPa, x2 = 0.7986 | 1444.4
308.14 K, 91190 kPa, x2 = 0.3008 | 1552.6
308.14 K, 101320 kPa, x2 = 0.7986 | 1592.7
308.14 K, 111450 kPa, x2 = 0.3008 | 1624.1
308.15 K, 100 kPa, x2 = 0.7986 | 1128.4
308.15 K, 45590 kPa, x2 = 0.7986 | 1379.8
308.15 K, 60790 kPa, x2 = 0.3008 | 1431.2
308.15 K, 101320 kPa, x2 = 0.4992 | 1588.3
308.16 K, 45590 kPa, x2 = 0.3008 | 1362
308.16 K, 101320 kPa, x2 = 0.3008 | 1589.1
308.16 K, 101320 kPa, x2 = 0.7016 | 1590
308.16 K, 111450 kPa, x2 = 0.6027 | 1622.3
308.17 K, 75990 kPa, x2 = 0.3008 | 1494.3
308.17 K, 75990 kPa, x2 = 0.6027 | 1496.3
308.17 K, 111450 kPa, x2 = 0.7016 | 1623.4
308.17 K, 121580 kPa, x2 = 0 | 1668.6
308.18 K, 60790 kPa, x2 = 0.6027 | 1435
308.18 K, 75990 kPa, x2 = 0.4992 | 1495.2
308.18 K, 91190 kPa, x2 = 0.4992 | 1552.3
308.18 K, 91190 kPa, x2 = 0.6027 | 1552.8
308.18 K, 121580 kPa, x2 = 0.6027 | 1654.7
308.19 K, 30400 kPa, x2 = 0.3008 | 1284.8
308.19 K, 60790 kPa, x2 = 0.4992 | 1433
308.19 K, 75990 kPa, x2 = 0.7986 | 1503.4
308.2 K, 100 kPa, x2 = 0.4992 | 1095.2
308.2 K, 30400 kPa, x2 = 0.4992 | 1289.6
308.2 K, 45590 kPa, x2 = 0.4992 | 1365.2
308.2 K, 45590 kPa, x2 = 0.7016 | 1373.1
308.2 K, 75990 kPa, x2 = 0.1008 | 1497.7
308.2 K, 91190 kPa, x2 = 0.7986 | 1558.1
308.2 K, 101320 kPa, x2 = 0.1008 | 1593.7
308.21 K, 100 kPa, x2 = 0.6027 | 1103.5
308.21 K, 100 kPa, x2 = 0.7016 | 1114.7
308.21 K, 60790 kPa, x2 = 0.1008 | 1433.6
308.21 K, 60790 kPa, x2 = 0.7016 | 1438.8
308.21 K, 111450 kPa, x2 = 0 | 1634.6
308.22 K, 100 kPa, x2 = 0.1008 | 1082.2
308.22 K, 30400 kPa, x2 = 0.1008 | 1284.6
308.22 K, 30400 kPa, x2 = 0.7016 | 1300
308.22 K, 45590 kPa, x2 = 0.1008 | 1363.2
308.22 K, 91190 kPa, x2 = 0.1008 | 1556.7
308.22 K, 111450 kPa, x2 = 0.1008 | 1628.9
308.23 K, 75990 kPa, x2 = 0.7016 | 1499.1
308.23 K, 121580 kPa, x2 = 0.1008 | 1662.3
308.24 K, 101320 kPa, x2 = 0 | 1599.1
308.24 K, 101320 kPa, x2 = 0.6027 | 1588.1
313.08 K, 100 kPa, x2 = 0.7986 | 1109.7
313.08 K, 75990 kPa, x2 = 0.7986 | 1490.8
313.09 K, 30400 kPa, x2 = 0.4992 | 1273.3
313.09 K, 60790 kPa, x2 = 0.4992 | 1418.7
313.1 K, 100 kPa, x2 = 0 | 1066.1
313.1 K, 100 kPa, x2 = 0.6027 | 1083.9
313.1 K, 15200 kPa, x2 = 0 | 1182
313.1 K, 60790 kPa, x2 = 0.7986 | 1431
313.1 K, 75990 kPa, x2 = 0 | 1489.2
313.1 K, 121580 kPa, x2 = 0.7986 | 1645.9
313.11 K, 45590 kPa, x2 = 0.7986 | 1365.7
313.11 K, 91190 kPa, x2 = 0.7016 | 1542.7
313.11 K, 91190 kPa, x2 = 0.7986 | 1546.1
313.11 K, 101320 kPa, x2 = 0.7986 | 1580.9
313.12 K, 30400 kPa, x2 = 0 | 1273.3
313.12 K, 30400 kPa, x2 = 0.6027 | 1277.6
313.12 K, 45590 kPa, x2 = 0 | 1353
313.12 K, 45590 kPa, x2 = 0.3008 | 1346.5
313.12 K, 60790 kPa, x2 = 0 | 1424.3
313.12 K, 60790 kPa, x2 = 0.1008 | 1419
313.12 K, 75990 kPa, x2 = 0.6027 | 1482.9
313.12 K, 91190 kPa, x2 = 0.6027 | 1540
313.12 K, 101320 kPa, x2 = 0.6027 | 1575.9
313.12 K, 111450 kPa, x2 = 0.7986 | 1614.1
313.13 K, 45590 kPa, x2 = 0.1008 | 1347.6
313.13 K, 45590 kPa, x2 = 0.6027 | 1353
313.13 K, 91190 kPa, x2 = 0 | 1549
313.13 K, 101320 kPa, x2 = 0.7016 | 1578
313.13 K, 121580 kPa, x2 = 0 | 1656.4
313.14 K, 15200 kPa, x2 = 0.1008 | 1176.1
313.14 K, 60790 kPa, x2 = 0.6027 | 1420.9
313.14 K, 75990 kPa, x2 = 0.1008 | 1483.7

— the NIST ThermoML archive (doi:10.1021/je030136n)
